Laboratory results: ChEMBL document CHEMBL4346752, “Discovery and evaluation of novel nitrodihydroimidazooxazoles as promising anti-tuberculosis agents” (Bioorg Med Chem Lett, 2019)
In brackets after ≈: the same amount, converted by molar mass.

Columns and labels:
[1] = tested on: Mycobacterium tuberculosis; assay: Antimycobacterial activity against Mycobacterium tuberculosis H37Rv assessed as reduction in bacterial cell growth incubated for 8 days measured under aerobic MABA conditions by alamar blue staining based assay; type: functional; conditions: 192 h
[2] = tested on: Mycobacterium tuberculosis; assay: Antimycobacterial activity against Mycobacterium tuberculosis H37Rv assessed as reduction in bacterial cell growth incubated for 11 days measured under anaerobic LORA condition by luminescence assay; type: functional; conditions: 264 h
[3] = Cytotoxicity against African green monkey Vero cells assessed as reduction in cell viability incubated for 72 hrs by MTT assay; type: cell-based; conditions: chlorocebus sabaeus
[4] = Solubility of the compound in water at pH 2 by HPLC analysis; type: physicochemical
[5] = Solubility of the compound in water at pH 6.5 by HPLC analysis; type: physicochemical
[6] = Apparent permeability across apical to basolateral side in MDCK cells at […] incubated for 60 mins by HPLC analysis; type: ADME, cell-based, Canis lupus familiaris; conditions: dog; for Papp A→B at 1 h: MDCK
[7] = Apparent permeability across basolateral to apical side in MDCK cells at […] incubated for 60 mins by HPLC analysis; type: ADME, cell-based, Canis lupus familiaris; conditions: dog; for Papp B→A at 1 h: MDCK
[8] = Efflux ratio of apparent permeability across basolateral to apical over apical to basolateral side in MDCK cells at […] incubated for 60 mins by HPLC analysis; type: ADME, cell-based, Canis lupus familiaris; conditions: dog

SMILES | MIC [1] [µg/mL] | MIC [2] [µg/mL] | CC50 at 72 h [3] [µg/mL] | other results
C[C@]1(CN2CCc3nc(C4CCCCC4)ccc3C2)Cn2cc([N+](=O)[O-])nc2O1 | 0.03 (≈ 0.0755 µM) | 7.21 (≈ 18.1 µM) |  | 
C[C@]1(CN2CCc3nc(-c4ccccc4)ccc3C2)Cn2cc([N+](=O)[O-])nc2O1 |  |  | > 32 | solubility [4]: 130 µM (≈ 50.7 µg/mL); solubility [5]: 3.35 µM (≈ 1.31 µg/mL); Papp A→B at 1 h [6]: 16.8 ×10⁻⁶ cm/s; Papp B→A at 1 h [7]: 22.7 ×10⁻⁶ cm/s; efflux ratio at 1 h ([8]; MDCK): 1.35
C[C@]1(CN2CCc3nc(-c4ccc(Cl)c(F)c4)ccc3C2)Cn2cc([N+](=O)[O-])nc2O1 | 0.03 (≈ 0.0676 µM) | 3.79 (≈ 8.54 µM) | > 32 | 
C[C@]1(CN2CCc3nc(-c4ccc(F)cc4)ccc3C2)Cn2cc([N+](=O)[O-])nc2O1 | < 0.031 | 4.83 (≈ 11.8 µM) | > 32 | solubility [4]: 143 µM (≈ 58.7 µg/mL); solubility [5]: 9.41 µM (≈ 3.85 µg/mL); Papp ([6]; mdck, 1 h, 100000 µM): 20.92 ×10⁻⁶ cm/s; Papp ([7]; mdck, 1 h, 100000 µM): 19.29 ×10⁻⁶ cm/s; Ratio ([8]; mdck, 1 h, 100000 µM): 1.09
C[C@]1(COc2ccc(N3CCC(Oc4ccc(OC(F)(F)F)cc4)CC3)cc2)Cn2cc([N+](=O)[O-])nc2O1 | < 0.031 | 1.23 (≈ 2.3 µM) |  | Papp A→B at 1 h [6]: 0.09 ×10⁻⁶ cm/s; Papp B→A at 1 h [7]: 0.17 ×10⁻⁶ cm/s
C[C@]1(CN2CCc3nc(-c4ccc(F)cc4)oc3C2)Cn2cc([N+](=O)[O-])nc2O1 |  |  | > 32 | 
C[C@]1(CN2CCc3nc(-c4cc(F)cc(F)c4)ccc3C2)Cn2cc([N+](=O)[O-])nc2O1 | 0.03 (≈ 0.0702 µM) | 1.64 (≈ 3.84 µM) | > 32 | 
C[C@]1(CN2CCc3nc(-c4ccc(F)c(F)c4)ccc3C2)Cn2cc([N+](=O)[O-])nc2O1 | 0.03 (≈ 0.0702 µM) | 3.88 (≈ 9.08 µM) | > 32 | 
C[C@]1(CN2CCc3nc(-c4ccc(F)c(Cl)c4)ccc3C2)Cn2cc([N+](=O)[O-])nc2O1 | 0.03 (≈ 0.0676 µM) | 3.82 (≈ 8.61 µM) | > 32 | 
C[C@]1(CN2CCc3nc(-c4cccc(Cl)c4F)ccc3C2)Cn2cc([N+](=O)[O-])nc2O1 | 0.03 (≈ 0.0676 µM) | 5.71 (≈ 12.9 µM) | > 32 | 
C[C@]1(CN2CCc3nc(-c4cc(Cl)ccc4F)ccc3C2)Cn2cc([N+](=O)[O-])nc2O1 | 0.04 (≈ 0.0901 µM) | 8.79 (≈ 19.8 µM) | > 32 | 
C[C@]1(CN2CCc3nc(-c4ccc(F)c(F)c4)oc3C2)Cn2cc([N+](=O)[O-])nc2O1 |  |  | > 32 | 
C[C@]1(CN2CCc3nc(-c4cc(F)ccc4Cl)ccc3C2)Cn2cc([N+](=O)[O-])nc2O1 | 0.15 (≈ 0.338 µM) | 4.28 (≈ 9.64 µM) | > 32 | 
C[C@]1(CN2CCc3nc(-c4ccc(Cl)cc4F)ccc3C2)Cn2cc([N+](=O)[O-])nc2O1 | 0.03 (≈ 0.0676 µM) | 5.28 (≈ 11.9 µM) | > 32 | 
C[C@]1(CN2CCc3oc(-c4ccc(F)cc4)nc3C2)Cn2cc([N+](=O)[O-])nc2O1 |  |  | > 32 | 
C[C@]1(CN2CCc3nc(-c4cccc(F)c4F)ccc3C2)Cn2cc([N+](=O)[O-])nc2O1 | 0.03 (≈ 0.0702 µM) | 3.72 (≈ 8.7 µM) | > 32 | 
CO[C@H]1/C=C/O[C@@]2(C)Oc3c(C)c(O)c4c(O)c(c(/C=N/N5CCN(C)CC5)c(O)c4c3C2=O)NC(=O)/C(C)=C\C=C\[C@H](C)[C@H](O)[C@@H](C)[C@@H](O)[C@@H](C)[C@H](OC(C)=O)[C@@H]1C [RIFAMPIN] | 0.1 (≈ 0.122 µM) | 0.72 (≈ 0.875 µM) | > 32 | 
C[C@]1(CN2CCc3nc(-c4cc(F)c(F)c(F)c4)ccc3C2)Cn2cc([N+](=O)[O-])nc2O1 | 0.08 (≈ 0.18 µM) | 0.76 (≈ 1.71 µM) | > 32 | solubility [4]: > 200 µM; solubility [5]: < 1 µM
C[C@]1(CN2CCc3nc(-c4cccc(F)c4)ccc3C2)Cn2cc([N+](=O)[O-])nc2O1 | 0.02 (≈ 0.0488 µM) | 6.5 (≈ 15.9 µM) | > 32 | 
C[C@]1(CN2CCc3nc(-c4ccccc4F)ccc3C2)Cn2cc([N+](=O)[O-])nc2O1 | 0.05 (≈ 0.122 µM) | 5 (≈ 12.2 µM) | > 32 | 
C[C@]1(CN2CCc3nc(-c4cc(F)cc(Cl)c4)ccc3C2)Cn2cc([N+](=O)[O-])nc2O1 | 0.03 (≈ 0.0676 µM) | 6.41 (≈ 14.4 µM) | > 32 | 
C[C@]1(CN2CCc3nc(-c4ccc(F)cc4)sc3C2)Cn2cc([N+](=O)[O-])nc2O1 |  |  | > 32 | 
C[C@]1(CN2CCc3nc(-c4cc(F)ccc4F)ccc3C2)Cn2cc([N+](=O)[O-])nc2O1 | 0.05 (≈ 0.117 µM) | 5.14 (≈ 12 µM) | > 32 | 
C[C@]1(CN2CCc3nc(-c4ccc(C(F)(F)F)cc4)ccc3C2)Cn2cc([N+](=O)[O-])nc2O1 | 0.03 (≈ 0.0653 µM) | > 8 | > 32 | 
C[C@]1(CN2CCc3nc(-c4ccc(F)cc4F)ccc3C2)Cn2cc([N+](=O)[O-])nc2O1 | 0.03 (≈ 0.0702 µM) | > 8 | 12.5 (≈ 29.2 µM) | 
